This note sets out measurements from US6469137B1, “Myelopeptides and their therapeutic use” (Primamedic, Ltd, priority 1997, dated 2002).

Where a SMILES comes first, the peptide text is derived from it. Bounds are passed on as bounds.

One series has as its system MT4 cells. Type of series: cell-based, human. As for the experimental part: The HIV-infected MT4 cells were incubated in RPMI-1640 culture medium supplemented with 10% FBS and 2 mM L-glutamine. The MT4 cells (0.5 million cells per 1 ml of culture medium) were placed in wells of a 24-well plastic culture plates and kept for 7 days of 37° C. in an atmosphere of 4.5% CO2. Each of the MPs examined was added into respective wells of the culture plates, to final concentrations of 0.1, 0.5, 1, 5, 10, 50 and 100 μg per 1 ml of culture were used. Azidothymidine (Sigma Chemical Co.) at its final concentration of 0.1 μg/ml, was used as a positive anti-viral control during each of the experiments.
Azidothymidine (0.1 μg/ml) caused 100% inhibition of HIV replication in the infected MT-4 cells.

Another series concerns serum interferon. Description: Serum interferon increase in mice (titration on EMV-infected L929 cells). Type of series: in vivo. The settings on record: dose and time not given.
For series [1], the system named is encephalomyocarditis virus (EMV). In words: Anti-viral activity in vitro, L929 cells infected by EMV. Type of series: cell-based, mouse. The settings on record: pre-incubation 24 or 48 h, then 100 TCID50 of EMV. The procedure: The L929 mouse fibroblastoid cell line was maintained in vitro as described above. MP-3, MP-4, MP-5 and MP-6 were added into triplicate cultures using the following final concentrations: 500, 250, 125, 63, 31, 16, 8, 4, 2, 1, 0.5, 0.25 μg per 1 ml of culture. Ridostin was used as a control interferon-inducer.
24 or 48 h post-injection, the L929 cell cultures were infected by 100 TCID50 of EMV. During the next 24 h the viral infection caused dramatic damages in L929 cells. […] MP-5, by contrast, when added in a final concentration of 16 μg/ml or more, completely abrogated destructive influence of the virus on L929 cells. So did MP-6, when added at a concentration of 4 μg/ml or more. […] MP-4 also defended the L929 cells from the virus-induced damage, after 48 h exposure of the cells in the presence of 32 μg/ml (or higher concentration) of the preparation before their challenge by the virus.

As for `CC(C)C[C@H](N)C(=O)N[C@H](C(=O)N[C@@H](CS)C(=O)N[C@@H](Cc1ccc(O)cc1)C(=O)N1CCC[C@H]1C(=O)N[C@@H](CCC(N)=O)C(=O)O)C(C)C` [MP-3, LVCYPQ] (H-LVCYPQ-OH; N-terminus and C-terminus assumed), the “Damage of MT4 cells (cell viability)” value with MT4 cells was “no visible damage”. Same read-out and setting: under `CC[C@H](C)[C@H](NC(=O)[C@H](CCCNC(=N)N)NC(=O)[C@@H]1CCCN1C(=O)[C@H](CCCNC(=N)N)NC(=O)[C@@H](N)Cc1ccccc1)C(=O)N[C@@H](CCSC)C(=O)N[C@H](C(=O)N1CCC[C@H]1C(=O)O)[C@@H](C)O` [MP-4, FRPRIMTP] (H-FRPRIMTP-OH; N-terminus and C-terminus assumed) stands “no visible damage”; under `CC(C)[C@H](N)C(=O)N[C@H](C(=O)N[C@@H](Cc1ccc(O)cc1)C(=O)N1CCC[C@H]1C(=O)N[C@@H](CC(=O)O)C(=O)O)C(C)C` [MP-5, VVYPD] (H-VVYPD-OH; N-terminus and C-terminus assumed), “no visible damage”; under `CC(C)[C@H](N)C(=O)N[C@@H](CC(=O)O)C(=O)N1CCC[C@H]1C(=O)N1CCC[C@H]1C(=O)O` [MP-6, VDPP] (H-VDPP-OH; N-terminus and C-terminus assumed), “no visible damage”. With Ridostin, the “Serum interferon titer, level characteristic of positive control” value in the series on serum interferon is 320 units/ml. The “Concentration that completely abrogated destructive influence of the virus on L929 cells” value in series [1] was at least 0.5 µg/mL.
